Measured values taken from patent US20110071173A1, “IMIDAZOQUINAZOLINE DERIVATIVES AS ANAGRELIDE ANALOGUES FOR THE TREATMENT OF MYELOPROLIFIC DISEASES AND THROMBOTIC DISEASES” (Shire LLC, priority 2008, published 2011).

Legend:
[1] = biological target: human phosphodiesterase III (PDE III); conditions: cited from earlier work
[2] = pharmacokinetics in vivo (half-life, exposure, first pass); parameters: species or system human; conditions: after anagrelide treatment
[3] = test system: TPO-induced megakaryocytopoiesis; conditions: cited from earlier work
[4] = cited from earlier work
[5] = test system: human phosphodiesterase III (PDE III); assay: PDE III inhibition; type: biochemical; conditions: versus anagrelide
[6] = test system: erythroid or myelomonocytic differentiation; conditions: stimulated by erythropoietin or granulocyte-macrophage colony-stimulating factor; cited from earlier work

| exposure in vivo relative to parent drug [2] | potency as PDE III inhibitor relative to anagrelide [5] | Compound | IC50 [1] [nM] | potency in inhibition of megakaryocytopoiesis relative to parent drug ([3]; versus anagrelide) | half-life ([4]; typical) [h] | effect on erythroid or myelomonocytic differentiation [6] | IC50 ([3]; in vitro, human megakaryocytopoiesis, read-out: estimated IC50, inhibition of TPO-induced megakaryocytopoiesis) [nM] | first pass effect ([4]; in vivo) [%] |
| --- | --- | --- | --- | --- | --- | --- | --- | --- |
|  |  | Cc1[nH]c(=O)c(C#N)cc1-c1ccncc1 [milrinone] | 170 to 350 |  |  |  |  |  |
| 2-3 fold | over 40 fold | O=C1NC2=Nc3ccc(Cl)c(Cl)c3CN2C1O (stereo not drawn) [3-hydroxyanagrelide] |  | no more potent than the parent drug | 2.5 |  |  |  |
|  |  | O=C1CN2Cc3c(ccc(Cl)c3Cl)N=C2N1 [Anagrelide, 6,7-dichloro-1,5-dihydroimidazo[2,1-b]-quinazolin-2(3H)-one] | ~29 |  |  | does not affect | ~26 | > 50 |
